Data as given in patent US8465939B2, “Aging-related circulating particle-associated lipoprotein B oxidase (apoBNOX) and inhibitors thereof” (Nox Technologies, Inc., priority 2010, dated 2013).
“Also recorded” adds a separate entry of the source.

Experiments:
apoBNOX = assay: superoxide dismutase-resistant apoBNOX activity by ferricytochrome c reduction; format: biochemical; details: for inhibition of apoBNOX: apoBNOX associated with lipoprotein particles
Procedure: Reduction of ferricytochrome c by superoxide was employed as the measure of superoxide dismutase-resistant apoBNOX activity (Mayo, L. A. and Curnutte, J., 1990, Meth. Enzyme. 186: 567-575; Butler, J. et al., 1982, J. Biol. Chem. 257: 10747-10750). The assay consists of 150 μl buffy coats in PBSG buffer (8.06 g NaCl, 0.2 g KCl, 0.18 g Na2HPO4, 0.13 g CaCl2, 0.1 MgCl2, 1.35 g glucose dissolved in 1000 ml deionized water, adjusted to pH 7.4, filtered and stored at 4° C.). Rates were determined using an SLM Aminco DW-2000 spectrophotometer (Milton Roy, Rochester, N.Y.) in the dual wave length mode of operation with continuous measurements over 1 min every 1.5 min. After 45 min, test compounds were added and the reaction was continued for an additional 45 min. After 45 min, a millimolar extinction coefficient of […] was used for reduced ferricytochrome c.
arNOX activity was assayed from measurements of superoxide production based on a standard method where reduction of ferricytochrome c was monitored from the increase in absorbance at 550 nm with reference at 540 nm (Butler et al., 1982). As a further check for the specificity of the apoBNOX activity, 60 units of superoxide dismutase (SOD) were added near the end of the assay to ascertain that the rate returned to base line. Rates were determined over 1 min at intervals of 1.5 min using a SLM Aminco DW 2000 spectrophotometer (Milton Roy, Rochester, N.Y.) in the dual wavelength mode of operation. An extinction coefficient of 19.1 mM^−1 cm^−1 was used for reduced ferricytochrome c.

recombinant arNOX SF2 = biological target: T1, recombinant arNOX SF2 (Homo sapiens, UniProt Q99805, F637E); assay: Lipid oxidation catalyzed by H2O2 formed from recombinant arNOX-generated superoxide (SF2); format: biochemical; details: SF2 + lecithin + SOD + inhibitor, incubated 2 h; without inhibitor 0.12, without SOD 0.06
T1 construct: made in house; host or cells: Escherichia coli BL21 (DE3), pET11a
From the text: FIG. 4 illustrates the role of apoBNOX in the oxidation of the apoB protein associated with low density lipoprotein particles and the recognition of the oxidized LDL by macrophages, resulting in the formation of foam cells leading to fatty streaks and atherogenic plaques. In this scheme, the apoBNOX binds selectively to lipoprotein particle-associated apoB and withdraws electrons to form superoxide. The superoxide thus generated is converted to hydrogen peroxide by the action of superoxide dismutase. The hydrogen peroxide thus generated attacks lipids (particularly phosphatidylcholine) of the low density lipoprotein particles to form reactive lipid peroxides that then attack key lysine residues in the apoB. Evidence that superoxide generated by arNOX when converted to hydrogen peroxide is capable of oxidizing phosphatidylcholine is given by the data of Table 2.

arNOX = details: cited from earlier work
Sensitivity to oxidation = format: physicochemical
From the text: (§1) This last characteristic might be problematic if hydroxytyrosol or tyrosol are pretended to be used in fat-based food products or supplements. Oxidation of hydroxytyrosol and tyrosol clearly affect the stability and preservation of both compounds. The hydroxytyrosol and tyrosol derivatives presented in this invention avoid these two problems. The hydroxyl groups on these derivatives are protected from oxidation by preparing hydroxytyrosol or tyrosol fatty acid esters. When compared to hydroxytyrosol and tyrosol, the hydroxytyrosol and tyrosol fatty acid esters are much more resistant against oxidation. At the same time, depending on the length of the fatty acid chain of the fatty acid esters, their solubility in fat-based food products will be increased. Hydroxytyrosol or tyrosol esters with a wide range of solubilities can be prepared, from totally water-soluble hydroxytyrosol or tyrosol derivatives when acetic acid is used in the formation of the ester to totally oil-soluble hydroxytyrosol or tyrosol derivatives when oleic acid is used in the formation of the ester. The hydroxytyrosol and tyrosol derivatives are hydrolyse in the intestinal tract of rats to their two components, hydroxytyrosol or tyrosol and the fatty acid. […] This implies that, after their hydrolysis, mentioned fatty acid esters can act as antioxidants to reduce or ameliorate diseases with an oxidative stress origin.

[1] = Hydrophilicity / solubility; format: physicochemical
From the text: as §1

[2] = Hydrolysis and absorption in rats; format: in vivo
From the text: as §1

Molecule	inhibition of apoBNOX (apoBNOX)	inhibition of arNOX activity of aging cells (arNOX)	also measured
COC1=C(OC)C(=O)C(C/C=C(\C)CC/C=C(\C)CC/C=C(\C)CC/C=C(\C)CC/C=C(\C)CC/C=C(\C)CC/C=C(\C)CC/C=C(\C)CC/C=C(\C)CCC=C(C)C)=C(C)C1=O [CoQ, coenzyme Q10]	resist inhibition	inhibited	inhibition of apoBNOX (apoBNOX; listed as CoQ10): relatively ineffective; Lipid oxidation, Relative units (recombinant arNOX SF2): 0.06 cm
superoxide dismutase	resist inhibition; also recorded: resistant to inhibition		
OCCc1ccc(O)cc1 [Tyrosol, 4-hydroxyphenethyl alcohol]			apoBNOX activity, % inhibition (apoBNOX; 100 μM tyrosol): 70%; sensitivity to oxidation (Sensitivity to oxidation): sensitive to oxidation; hydrophilicity / solubility [1]: hydrophilic; absorption ([2]; rat, in vivo): rapidly absorbed
COC1=C(OC)C(=O)C(C/C=C(\C)CC/C=C(\C)CC/C=C(\C)CC/C=C(\C)CC/C=C(\C)CC/C=C(\C)CC/C=C(\C)CC/C=C(\C)CCC=C(C)C)=C(C)C1=O [CoQ9]	relatively ineffective	inhibited	
OCCc1ccc(O)c(O)c1 [Hydroxytyrosol, hydroxytyrosol]			hydrophilicity / solubility [1]: hydrophilic; absorption ([2]; rats, after hydrolysis of the esters, detected in plasma and cerebrospinal fluid): rapidly absorbed
O=c1cc(-c2ccc(O)cc2)oc2cc(O)cc(O)c12 [apigenin]	resist inhibition		
COC1=C(OC)C(=O)C(C/C=C(\C)CC/C=C(\C)CC/C=C(\C)CC/C=C(\C)CC/C=C(\C)CC/C=C(\C)CC/C=C(\C)CCC=C(C)C)=C(C)C1=O [CoQ8]	relatively ineffective	inhibited	
